Measured values: PubChem BioAssay (NCI)
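Five compound concentrations were applied to cells in 96-well plates for 48 hours; endpoints were derived by simple linear interpolation of the resulting dose-response curve. GI50 marks 50% less growth. TGI: concentration producing complete growth inhibition.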

How the values were obtained:
Assay in all cases: inhibition of tumour cell growth, NCI panel, 48 h
SK-MEL-28 melanoma = system: SK-MEL-28 melanoma
A549 NSCLC = system: A549 NSCLC
ACHN renal = system: ACHN renal
SF-539 CNS = system: SF-539 CNS
IGROV1 ovarian = system: IGROV1 ovarian
OVCAR-8 ovarian = system: OVCAR-8 ovarian
U251 CNS = system: U251 CNS
BT-549 breast = system: BT-549 breast
HOP-62 NSCLC = system: HOP-62 NSCLC
DU-145 prostate = system: DU-145 prostate
SK-MEL-2 melanoma = system: SK-MEL-2 melanoma
OVCAR-4 ovarian = system: OVCAR-4 ovarian
MDA-MB-435 = system: MDA-MB-435
HCT-15 colon = system: HCT-15 colon
NCI-H226 lung = system: NCI-H226 lung
786-0 renal = system: 786-0 renal
LOX IMVI melanoma = system: LOX IMVI melanoma
OVCAR-5 ovarian = system: OVCAR-5 ovarian
NCI-H522 lung = system: NCI-H522 lung
RXF 393 renal = system: RXF 393 renal
MALME-3M melanoma = system: MALME-3M melanoma
UO-31 renal = system: UO-31 renal
CCRF-CEM leukemia = system: CCRF-CEM leukemia
MDA-MB-231 breast = system: MDA-MB-231 breast
HL-60(TB) leukemia = system: HL-60(TB) leukemia
SN12C renal = system: SN12C renal
SW-620 colon = system: SW-620 colon
RPMI-8226 leukemia = system: RPMI-8226 leukemia
SK-MEL-5 melanoma = system: SK-MEL-5 melanoma
CAKI-1 renal = system: CAKI-1 renal
HS 578T breast = system: HS 578T breast
MCF7 breast = system: MCF7 breast
SNB-19 CNS = system: SNB-19 CNS
UACC-62 melanoma = system: UACC-62 melanoma
MOLT-4 leukemia = system: MOLT-4 leukemia
SF-268 CNS = system: SF-268 CNS
TK-10 renal = system: TK-10 renal
HOP-92 NSCLC = system: HOP-92 NSCLC
K-562 leukemia = system: K-562 leukemia
SR leukemia = system: SR leukemia
SF-295 CNS = system: SF-295 CNS
HCT-116 colon = system: HCT-116 colon
M14 melanoma = system: M14 melanoma
T-47D breast = system: T-47D breast
COLO 205 colon = system: COLO 205 colon
OVCAR-3 ovarian = system: OVCAR-3 ovarian
SK-OV-3 ovarian = system: SK-OV-3 ovarian
MDA-MB-468 breast = system: MDA-MB-468 breast
HCC-2998 colon = system: HCC-2998 colon
NCI/ADR-RES ovarian = system: NCI/ADR-RES ovarian
EKVX NSCLC = system: EKVX NSCLC
HT29 colon = system: HT29 colon
A498 renal = system: A498 renal
UACC-257 melanoma = system: UACC-257 melanoma
NCI-H23 lung = system: NCI-H23 lung
KM12 colon = system: KM12 colon
NCI-H460 lung = system: NCI-H460 lung
PC-3 prostate = system: PC-3 prostate

Structure (SMILES): CC(=O)c1ccc(Nc2nc(SC(C)C)nc(-c3ccccc3)c2C#N)cc1
- GI50 (SK-MEL-28 melanoma): 16.9 µM
- TGI (SK-MEL-28 melanoma): > 100 µM
- GI50 (A549 NSCLC): 72.9 µM
- TGI (A549 NSCLC): > 100 µM
- GI50 (ACHN renal): 2.15 µM
- TGI (ACHN renal): 5.17 µM
- GI50 (SF-539 CNS): 2.17 µM
- TGI (SF-539 CNS): 7.69 µM
- GI50 (IGROV1 ovarian): 8.02 µM
- TGI (IGROV1 ovarian): > 100 µM
- GI50 (OVCAR-8 ovarian): 3.29 µM
- TGI (OVCAR-8 ovarian): > 100 µM
- GI50 (U251 CNS): 1.32 µM
- TGI (U251 CNS): 4.26 µM
- GI50 (BT-549 breast): 24.8 µM
- TGI (BT-549 breast): > 100 µM
- GI50 (HOP-62 NSCLC): 2.13 µM
- TGI (HOP-62 NSCLC): 5.38 µM
- GI50 (DU-145 prostate): 17.6 µM
- TGI (DU-145 prostate): > 100 µM
- GI50 (SK-MEL-2 melanoma): > 100 µM
- TGI (SK-MEL-2 melanoma): > 100 µM
- GI50 (OVCAR-4 ovarian): 5.07 µM
- TGI (OVCAR-4 ovarian): > 100 µM
- GI50 (MDA-MB-435): 5.06 µM
- TGI (MDA-MB-435): > 100 µM
- GI50 (HCT-15 colon): 7.61 µM
- TGI (HCT-15 colon): > 100 µM
- GI50 (NCI-H226 lung): 2.54 µM
- TGI (NCI-H226 lung): 7.14 µM
- GI50 (786-0 renal): 2.07 µM
- TGI (786-0 renal): 4.81 µM
- GI50 (LOX IMVI melanoma): 3.51 µM
- TGI (LOX IMVI melanoma): > 100 µM
- GI50 (OVCAR-5 ovarian): 21.2 µM
- TGI (OVCAR-5 ovarian): > 100 µM
- GI50 (NCI-H522 lung): 8.3 µM
- TGI (NCI-H522 lung): > 100 µM
- GI50 (RXF 393 renal): 2.08 µM
- TGI (RXF 393 renal): 7.48 µM
- GI50 (MALME-3M melanoma): 14.1 µM
- TGI (MALME-3M melanoma): > 100 µM
- GI50 (UO-31 renal): 2.03 µM
- TGI (UO-31 renal): 4.94 µM
- GI50 (CCRF-CEM leukemia): > 100 µM
- TGI (CCRF-CEM leukemia): > 100 µM
- GI50 (MDA-MB-231 breast): 2.9 µM
- TGI (MDA-MB-231 breast): 8.23 µM
- GI50 (HL-60(TB) leukemia): > 100 µM
- TGI (HL-60(TB) leukemia): > 100 µM
- GI50 (SN12C renal): 11.4 µM
- TGI (SN12C renal): > 100 µM
- GI50 (SW-620 colon): 3.77 µM
- TGI (SW-620 colon): 64.1 µM
- GI50 (RPMI-8226 leukemia): > 100 µM
- TGI (RPMI-8226 leukemia): > 100 µM
- GI50 (SK-MEL-5 melanoma): 5.03 µM
- TGI (SK-MEL-5 melanoma): 20.3 µM
- GI50 (CAKI-1 renal): 2.82 µM
- TGI (CAKI-1 renal): 13.2 µM
- GI50 (HS 578T breast): 3.09 µM
- TGI (HS 578T breast): 23.8 µM
- GI50 (MCF7 breast): 4.74 µM
- TGI (MCF7 breast): > 100 µM
- GI50 (SNB-19 CNS): 2.05 µM
- TGI (SNB-19 CNS): 4.63 µM
- GI50 (UACC-62 melanoma): 43.8 µM
- TGI (UACC-62 melanoma): > 100 µM
- GI50 (MOLT-4 leukemia): > 100 µM
- TGI (MOLT-4 leukemia): > 100 µM
- GI50 (SF-268 CNS): 5.35 µM
- TGI (SF-268 CNS): > 100 µM
- GI50 (TK-10 renal): 2.54 µM
- TGI (TK-10 renal): 5.67 µM
- GI50 (HOP-92 NSCLC): 1.91 µM
- TGI (HOP-92 NSCLC): 7.86 µM
- GI50 (K-562 leukemia): 9.17 µM
- TGI (K-562 leukemia): > 100 µM
- GI50 (SR leukemia): > 100 µM
- TGI (SR leukemia): > 100 µM
- GI50 (SF-295 CNS): 1.4 µM
- TGI (SF-295 CNS): 3.25 µM
- GI50 (HCT-116 colon): 1.34 µM
- TGI (HCT-116 colon): 6.69 µM
- GI50 (M14 melanoma): 21.9 µM
- TGI (M14 melanoma): > 100 µM
- GI50 (T-47D breast): 81.6 µM
- TGI (T-47D breast): > 100 µM
- GI50 (COLO 205 colon): 15.6 µM
- TGI (COLO 205 colon): > 100 µM
- GI50 (OVCAR-3 ovarian): 40 µM
- TGI (OVCAR-3 ovarian): > 100 µM
- GI50 (SK-OV-3 ovarian): 5.02 µM
- TGI (SK-OV-3 ovarian): 38.9 µM
- GI50 (MDA-MB-468 breast): 5.08 µM
- TGI (MDA-MB-468 breast): 50.2 µM
- GI50 (HCC-2998 colon): 15.8 µM
- TGI (HCC-2998 colon): > 100 µM
- GI50 (NCI/ADR-RES ovarian): 2.82 µM
- TGI (NCI/ADR-RES ovarian): 10.6 µM
- GI50 (EKVX NSCLC): 4.71 µM
- TGI (EKVX NSCLC): > 100 µM
- GI50 (HT29 colon): 3.81 µM
- TGI (HT29 colon): > 100 µM
- GI50 (A498 renal): 24.2 µM
- TGI (A498 renal): 71.9 µM
- GI50 (UACC-257 melanoma): > 100 µM
- TGI (UACC-257 melanoma): > 100 µM
- GI50 (NCI-H23 lung): 2.46 µM
- TGI (NCI-H23 lung): 11.2 µM
- GI50 (KM12 colon): > 100 µM
- TGI (KM12 colon): > 100 µM
- GI50 (NCI-H460 lung): 3.53 µM
- TGI (NCI-H460 lung): > 100 µM
- GI50 (PC-3 prostate): 8.98 µM
- TGI (PC-3 prostate): > 100 µM
